Laboratory results from patent US8247383B2, “Drug-carrier complexes and methods of use thereof” (The General Hospital Corporation, priority 1999, dated 2012).
Like-named read-outs stand apart in the source and are kept apart here. Blank lines part the entries; values can stand above or below the compound they belong to. d = 2'-deoxy (DNA); r = 2'-OH (RNA)

Experiments:
[1] = Doxorubicin biodistribution (14C tissue radioactivity); assay type: in vivo, mice; conditions: 0.3 mg/kg via tail vein, 20 hours after injection
Procedure: (^14C)doxorubicin-loaded carriers (Example 12) and free (^14C)doxorubicin (control) were injected into normal outbred mice (males, 30 g) via tail vein, at 0.3 mg/kg. Biodistribution was studied by measuring tissue radioactivity 20 hours after injection. Tissue samples were disintegrated, solubilized, mixed with a scintillation cocktail and counted on a scintillation counter.

[2] = test system: human epithelial cells (kidney, line 293); assay: Carrier and adduct toxicity in cell culture (Trypan Blue staining); assay type: cell-based; conditions: control experiment, confluent and growing cultures
Procedure: Carrier toxicity in cell culture. Unloaded carriers (Example 7) were tested in near confluent culture of human epithelial cells (kidney, line 293, from ATCC #CRL 1573) in DMEM with 5% calf serum. Carriers were added to the cell culture at various concentrations, from 1 mg/ml to 1 mg/ml. Cell survival rate was determined by staining with Trypan Blue after a 16-hour incubation.
Adduct toxicity in cell culture. Doxorubicin-loaded carriers (Example 12) were tested in near confluent and growing cultures of human epithelial cells (kidney, line 293) in DMEM containing 5% calf serum. […] Cell survival rate was determined by staining with Trypan Blue after a 16-hour incubation.

[3] = Lyophilization and reconstitution in PBS with membrane filtration; assay type: physicochemical; conditions: one milligram by doxorubicin in 0.1 ml of 50 mM PBS, pH=7
Procedure: The adducts obtained as described in Examples 2 and 3 were used in a lyophilized form. Doxorubicin powder (Sigma Chemical Co., St. Louis, Mo.) and lyophilized “Doxorubicin for injection” were used as control preparations. Each of the four preparations, in the amount of one milligram by doxorubicin, were suspended in 0.1 ml of a 50 mM PBS, pH=7. […] The resultant solutions oligonucleotide-doxorubicin adduct solutions were filtered through […] PTFE membrane filters; doxorubicin was recovered in the filtrates with at least 98% yield (by adsorption at 470 nm).

[4] = cited from earlier work
[5] = parameters: species or system mice; conditions: mouse, in vivo, iv
Procedure: An arbitrarily chosen 5-amino modified 18-base phosphodiester oligonucleotide 5° […] (SEQ ID NO: 11), 0.11 mg, was modified with trace amount of ethylenediaminetraacetic anhydride and hybridized with (a) a complementary oligonucleotide, 5′[…] (SEQ ID NO: 12), and (b) analogous complementary oligonucleotide amino modified at both 5′ and 3′ ends and at positions 4, 9 and 15 (from 5′). The hybridized amino modified DSO was incubated with 1 ml of 10 mg/ml solution of N-hydroxycuccinimido-polyethyleneglycol, MW=10 kDa, at pH=8 for 8 hours. The products, PEG-modified double stranded oligonucleotides, were isolated by HPLC. Both PEG-modified and unmodified double stranded oligonucleotides were labeled with 111 in 0.5 M citrate buffer solution, pH=5.6. Labeled preparations were purified by SEC HPLC. Each was divided into 4 equal doses and administered intravenously to outbred mice (n=4 in each group, male, 31±2 g). Blood samples were taken immediately after injection, then at 0.25, 0.5, 1, 2, 4 and 8 hours.

[6] = assay type: physicochemical
Procedure: An oligonucleotide with arbitrarily chosen […] sequence, 5′CGTCGACGTCGAATATACGC (SEQ ID NO: 3), and a complementary 5′-amino modified oligonucleotide 5′GC GTA TAT TCG ACG TCG ACG (SEQ ID NO: 4) were purchased from a commercial vendor. To form a double stranded oligonucleotide, the single-stranded oligonucleotides were hybridized and lyophilized as described in Example 1. The resultant double stranded oligonucleotide was stable at ambient (25° C.) and body temperature (37° C.).

[7] = test system: antifluorescein rabbit IgG; assay: Steric protection: kinetics of fluorescein quenching by anti-fluorescein IgG; assay type: binding; conditions: polymer chains positioned within 2 and 9 bases of fluorescein; 10-fold anti-fluorescein IgG, 20 mM PBS, pH=7.5
Procedure: To determine the degree of steric protection of the nucleotide core by polymer chains, a series of double-stranded oligonucleotides were synthesized. A model antigen (fluorescein) and a model protective chain (polyethyleneglycol) were positioned on the oligonucleotide at various distances. Then kinetics of fluorescein moiety interactions with fluorescence-quenching antifluorescein rabbit IgG (Molecular Probes, Oreg.) was determined to evaluate the degree of steric protection. The latter was investigated as a function of the distance between the antigen and the protective chain. Four 5′-amino modified oligonucleotides with the same sequence 5′-TTT-CTC-TCT-CTC-TCT-CTC-TCT-3′ (SEQ ID NO: 5) were obtained from a commercial source. […]
The resultant double-stranded oligonucleotides were purified by SEC HPLC and modified, through the 5′-aminogroup of the first strand, with N-hydroxysuccinimide ester of carboxy-polyethyleneglycol (MW=2 kDa and 20 kDa), and with N-hydroxysuccinimide ester of branched “PEG2” polyethyleneglycol (10 kDa). […] Fluorescein—antibody interaction was registered by quenching of the fluorescein fluorescence by the antibody. Fluorescence was registered at 515 nm (excitation at 490 nm). The kinetics of fluorescence quenching depended on the position of the fluorescein moiety relative to the polymer chain.

[8] = Carrier biokinetics (3H-labeled carriers, blood); assay type: in vivo; conditions: 1 mg/kg via tail vein, mice
Procedure: Unloaded carriers (Example 8) were labeled with tritium (^3H). Carriers were oxidized with periodate to produce aldehyde groups on the 3′-ribonucleotide base present in the structure, and reacted with [^3H] borohydride to introduce tritium into carrier core structure. Carriers were purified on Sephadex G-25 and injected at 1 mg/kg into normal outbred mice (males, 30 g) via tail vein. Blood samples were collected at different time points and counted. The blood half-lives were ca. 30 min and 10 hours for unprotected and PHF-protected carriers, respectively.

outbred mice [9] = assay: Carrier toxicity in vivo; conditions: 100 mg/kg intravenously, observed for 30 days
Source text: Carrier toxicity in vivo.

outbred mice [10] = assay: Adduct toxicity in vivo; conditions: observed for 30 days
Procedure: Adduct toxicity in vivo. […] Bis-intercalator content was one molecule per 6 base pairs of the nucleotide core. […] The adduct and free bis-intercalator were administered intravenously, as described above, into male outbred mice (30±2 g, n=4 per group) at 30 mg/kg by bis-intercalator. In a third group, unloaded carrier was injected at 100 mg/kg within 15 minutes after the administration of 30 mg/kg of bis-doxorubicin.

label distribution to liver [1]: 3±0.6 % dose/g | label distribution to lung [1]: 4.6±1.6 % dose/g | label content in skeletal muscle ([1]; mean±standard deviation): 2±0.4 % dose/g | dissolution on suspending the preparation [3]: formed suspensions
Compound: COc1cccc2c1C(=O)c1c(O)c3c(c(O)c1C2=O)C[C@@](O)(C(=O)CO)C[C@@H]3O[C@H]1C[C@H](N)[C@H](O)[C@H](C)O1 [doxorubicin, Doxorubicin]
cytotoxic effects compared with doxorubicin-loaded carriers [2]: essentially the same cytotoxic effects | solubility at physiological pH [4]: limited solubility

Compound: unmodified double stranded oligonucleotides: labeled SEQ ID NO: 11 hybridized with complementary SEQ ID NO: 12 (chain 1 CGTCGACGTCGAATATACGC; chain 2 GCGTATATTCGACGTCGACG; DNA, phosphodiester; one strand carries an unspecified label)
blood half-life [5]: 0.2 ± 0.083 h

Compound: double stranded oligonucleotide: hybrid of 5′CGTCGACGTCGAATATACGC (SEQ ID NO: 3) and complementary 5′-amino modified SEQ ID NO: 4 (chain 1 CGTCGACGTCGAATATACGC; chain 2 GCGTATATTCGACGTCGACG; complementary strand carries 5'-amino modification, further chemistry not given here)
stability of double stranded oligonucleotide [6]: stable

Compound: 20 kDa polymer: fluorescein-labeled double-stranded oligonucleotide (SEQ ID NO: 5/6) modified at 5′-amino group with 20 kDa polyethyleneglycol (chain 1 TTTCTCTCTCTCTCTCTCTCT; chain 2 AGAGAGAGAGAGAGAGAGAAAA; 5'-amino linked 20 kDa PEG, fluorescein on an internal base, further chemistry not given here)
decrease of the kinetic constant of fluorescein-antibody interaction [7]: 80%

Compound: unprotected carriers: double-stranded carrier from unmodified oligonucleotides SEQ ID NO: 7 and 8 (chain 1 ATGGCGCACGCTGGGAGA; chain 2 TCTCCCAGCGTGCGCCATC; chain 1: DNA, backbone and methylation of C not given here; chain 2: sugars from the 5' end d18 r1, all phosphodiester, methylation of C not given here)
blood half-life [8]: ca. 30 min

Compound: PHF-protected carriers: amino modified double-stranded oligonucleotide (SEQ ID NO: 9/8) conjugated with 10 kDa PHF (chain 1 ATGGCGCACGCTGGGAGAC; chain 2 TCTCCCAGCGTGCGCCATC; sugars from the 5' end d18 r1, backbone and methylation of C not given here; amino modifications at positions 1, 2, 12, 19 of first strand, PHF polymer conjugated)
blood half-life [8]: ~10 h | signs of toxicity (outbred mice [9]): None of the animals showed signs of toxicity | survival (outbred mice [9]; n=6): All animals survived

Compound: 2 kDa polymer: fluorescein-labeled double-stranded oligonucleotide (SEQ ID NO: 5/6) modified at 5′-amino group with 2 kDa polyethyleneglycol (chain 1 TTTCTCTCTCTCTCTCTCTCT; chain 2 AGAGAGAGAGAGAGAGAGAAAA; fluorescein, 2 kDa PEG, chemistry not fully specified)
decrease of the kinetic constant of fluorescein-antibody interaction [7]: 20%

Compound: C[C@H](CNCCNC[C@@H](C)N1C(=O)c2cccc3cc([N+](=O)[O-])cc(c23)C1=O)N1C(=O)c2cccc3cc([N+](=O)[O-])cc(c23)C1=O [DMP 840]
solubility at physiological pH [4]: limited solubility

Compound: COc1cccc2c1C(=O)c1c(O)c3c(c(O)c1C2=O)C[C@@](O)(C(C)=O)C[C@@H]3O[C@H]1C[C@H](NCc2ccc(CN[C@H]3C[C@H](O[C@H]4C[C@](O)(C(C)=O)Cc5c(O)c6c(c(O)c54)C(=O)c4c(OC)cccc4C6=O)O[C@@H](C)[C@H]3O)cc2)[C@H](O)[C@H](C)O1 [WP-631]
survival (outbred mice [10]; 30 mg/kg bis-doxorubicin, then unloaded carrier 100 mg/kg within 15 minutes): all animals survived | survival (outbred mice [10]; 30 mg/kg by bis-intercalator intravenously, n=4 per group): only one animal survived | solubility at physiological pH [4]: limited solubility
